Species: Rattus norvegicus
Assay: Open TG-GATES - Regimen: Daily Repeat
Type: toxicity, organism-based, Sprague-Dawley
Design: regimen Daily Repeat, gender Male, age 6 weeks
Conditions: in vivo, po, 300 mg/kg, route gavage, dose level Low; for Bas / Eos / Hb / Ht / Lym / MCH / MCHC / MCV / Mono / Neu / Plat / RBC / Ret / WBC: tissue Blood; for KIDNEY_L / KIDNEY_R / KIDNEY_TOTAL: tissue Kidney; for LIVER: tissue Liver; for A/G / ALP / ALT / AST / BUN / CRE / Ca / Cl / DBIL / GLC / IP / K / LDH / Na / PL / RALB / TBIL / TC / TG / TP / gamma-GTP: tissue Plasma

CC(N)=O [ACETAMIDE]
TERMINAL_BW (72 h, time 3 day): 239.9 g
Bas (72 h, time 3 day): 0%
Eos (72 h, time 3 day): 0.8%
Hb (72 h, time 3 day): 12.4 g/dL
Ht (72 h, time 3 day): 38.3%
Lym (72 h, time 3 day): 75.8%
MCH (72 h, time 3 day): 20.5 pg
MCHC (72 h, time 3 day): 32.5%
MCV (72 h, time 3 day): 63 fL
Mono (72 h, time 3 day): 3.4%
Neu (72 h, time 3 day): 19.4%
Plat (72 h, time 3 day): 135.2 x10_4/uL
RBC (72 h, time 3 day): 608.2 x10_4/ul
Ret (72 h, time 3 day): 8.2%
WBC (72 h, time 3 day): 104.5 x10_2/uL
KIDNEY_L (72 h, time 3 day): 1 g
KIDNEY_R (72 h, time 3 day): 1 g
KIDNEY_TOTAL (72 h, time 3 day): 2.1 g
LIVER (72 h, time 3 day): 11.3 g
A/G (72 h, time 3 day): 1
ALP (72 h, time 3 day): 2008.8 IU/L
ALT (72 h, time 3 day): 36.4 IU/L
AST (72 h, time 3 day): 65.4 IU/L
BUN (72 h, time 3 day): 17.6 mg/dL
CRE (72 h, time 3 day): 0.1 mg/dL
Ca (72 h, time 3 day): 10.8 mg/dL
Cl (72 h, time 3 day): 103.4 meq/L
DBIL (72 h, time 3 day): 0.002 mg/dL
GLC (72 h, time 3 day): 184.6 mg/dL
IP (72 h, time 3 day): 6.6 mg/dL
K (72 h, time 3 day): 4.5 meq/L
LDH (72 h, time 3 day): 138.4 IU/L
Na (72 h, time 3 day): 139.5 meq/L
PL (72 h, time 3 day): 157.2 mg/dL
RALB (72 h, time 3 day): 2.8 g/dL
TBIL (72 h, time 3 day): 0.006 mg/dL
TC (72 h, time 3 day): 80.4 mg/dL
TG (72 h, time 3 day): 137.5 mg/dL
TP (72 h, time 3 day): 5.5 g/dL
gamma-GTP (72 h, time 3 day): 0.8 IU/L
TERMINAL_BW ([…], time 7 day): 271.7 g
TERMINAL_BW ([…], time 14 day): 327.7 g
TERMINAL_BW ([…], time 28 day): 432.9 g
Bas ([…], time 7 day): 0%
Eos ([…], time 7 day): 0.8%
Hb ([…], time 7 day): 12.5 g/dL
Ht ([…], time 7 day): 38.3%
Lym ([…], time 7 day): 76.4%
MCH ([…], time 7 day): 19.8 pg
MCHC ([…], time 7 day): 32.7%
MCV ([…], time 7 day): 60.6 fL
Mono ([…], time 7 day): 3.4%
Neu ([…], time 7 day): 18.4%
Plat ([…], time 7 day): 115.7 x10_4/uL
RBC ([…], time 7 day): 631.6 x10_4/ul
Ret ([…], time 7 day): 6.4%
WBC ([…], time 7 day): 120.4 x10_2/uL
Bas ([…], time 14 day): 0%
Eos ([…], time 14 day): 1%
Hb ([…], time 14 day): 13.2 g/dL
Ht ([…], time 14 day): 39.9%
Lym ([…], time 14 day): 76.8%
MCH ([…], time 14 day): 19.6 pg
MCHC ([…], time 14 day): 33.2%
MCV ([…], time 14 day): 59.2 fL
Mono ([…], time 14 day): 2.8%
Neu ([…], time 14 day): 19%
Plat ([…], time 14 day): 105.9 x10_4/uL
RBC ([…], time 14 day): 674.2 x10_4/ul
Ret ([…], time 14 day): 4.8%
WBC ([…], time 14 day): 126.4 x10_2/uL
Bas ([…], time 28 day): 0%
Eos ([…], time 28 day): 1%
Hb ([…], time 28 day): 14.1 g/dL
Ht ([…], time 28 day): 42.1%
Lym ([…], time 28 day): 77.8%
MCH ([…], time 28 day): 19.1 pg
MCHC ([…], time 28 day): 33.5%
MCV ([…], time 28 day): 57.1 fL
Mono ([…], time 28 day): 2.4%
Neu ([…], time 28 day): 17.8%
Plat ([…], time 28 day): 111 x10_4/uL
RBC ([…], time 28 day): 737.8 x10_4/ul
Ret ([…], time 28 day): 3.2%
WBC ([…], time 28 day): 165 x10_2/uL
KIDNEY_L ([…], time 7 day): 1.1 g
KIDNEY_R ([…], time 7 day): 1.1 g
KIDNEY_TOTAL ([…], time 7 day): 2.2 g
KIDNEY_L ([…], time 14 day): 1.3 g
KIDNEY_R ([…], time 14 day): 1.3 g
KIDNEY_TOTAL ([…], time 14 day): 2.6 g
KIDNEY_L ([…], time 28 day): 1.5 g
KIDNEY_R ([…], time 28 day): 1.5 g
KIDNEY_TOTAL ([…], time 28 day): 3 g
LIVER ([…], time 7 day): 12.8 g
LIVER ([…], time 14 day): 14.1 g
LIVER ([…], time 28 day): 17.3 g
A/G ([…], time 7 day): 0.9
ALP ([…], time 7 day): 1504 IU/L
ALT ([…], time 7 day): 39.4 IU/L
AST ([…], time 7 day): 73.4 IU/L
BUN ([…], time 7 day): 19.4 mg/dL
CRE ([…], time 7 day): 0.2 mg/dL
Ca ([…], time 7 day): 10.5 mg/dL
Cl ([…], time 7 day): 104.1 meq/L
DBIL ([…], time 7 day): 0 mg/dL
GLC ([…], time 7 day): 187.4 mg/dL
IP ([…], time 7 day): 6.3 mg/dL
K ([…], time 7 day): 4.7 meq/L
LDH ([…], time 7 day): 205.8 IU/L
Na ([…], time 7 day): 141.3 meq/L
PL ([…], time 7 day): 149.6 mg/dL
RALB ([…], time 7 day): 2.8 g/dL
TBIL ([…], time 7 day): 0 mg/dL
TC ([…], time 7 day): 72 mg/dL
TG ([…], time 7 day): 141.8 mg/dL
TP ([…], time 7 day): 5.8 g/dL
gamma-GTP ([…], time 7 day): 0.5 IU/L
A/G ([…], time 14 day): 0.9
ALP ([…], time 14 day): 1341.2 IU/L
ALT ([…], time 14 day): 34.4 IU/L
AST ([…], time 14 day): 68.6 IU/L
BUN ([…], time 14 day): 17.7 mg/dL
CRE ([…], time 14 day): 0.2 mg/dL
Ca ([…], time 14 day): 10.4 mg/dL
Cl ([…], time 14 day): 104.9 meq/L
DBIL ([…], time 14 day): 0 mg/dL
GLC ([…], time 14 day): 197.4 mg/dL
IP ([…], time 14 day): 6.3 mg/dL
K ([…], time 14 day): 4.4 meq/L
LDH ([…], time 14 day): 244 IU/L
Na ([…], time 14 day): 141.1 meq/L
PL ([…], time 14 day): 147.4 mg/dL
RALB ([…], time 14 day): 2.8 g/dL
TBIL ([…], time 14 day): 0.002 mg/dL
TC ([…], time 14 day): 71.2 mg/dL
TG ([…], time 14 day): 132 mg/dL
TP ([…], time 14 day): 5.8 g/dL
gamma-GTP ([…], time 14 day): 0.7 IU/L
A/G ([…], time 28 day): 0.9
ALP ([…], time 28 day): 1160.4 IU/L
ALT ([…], time 28 day): 41.2 IU/L
AST ([…], time 28 day): 75.8 IU/L
BUN ([…], time 28 day): 20.1 mg/dL
CRE ([…], time 28 day): 0.2 mg/dL
Ca ([…], time 28 day): 10.5 mg/dL
Cl ([…], time 28 day): 104.1 meq/L
DBIL ([…], time 28 day): 0.004 mg/dL
GLC ([…], time 28 day): 211.2 mg/dL
IP ([…], time 28 day): 6.3 mg/dL
K ([…], time 28 day): 4.3 meq/L
LDH ([…], time 28 day): 256 IU/L
Na ([…], time 28 day): 141.8 meq/L
PL ([…], time 28 day): 158.6 mg/dL
RALB ([…], time 28 day): 2.8 g/dL
TBIL ([…], time 28 day): 0 mg/dL
TC ([…], time 28 day): 77 mg/dL
TG ([…], time 28 day): 175.1 mg/dL
TP ([…], time 28 day): 6 g/dL
gamma-GTP ([…], time 28 day): 0.9 IU/L

— ChEMBL document CHEMBL3885861, “Open TG-GATES”
